Assay results: the NIST ThermoML archive (doi:10.1016/j.tca.2007.03.018)

Columns and labels:
[1] = for molar entropy: 101.33 kPa; for vapor or sublimation pressure: Knudsen effusion
[2] = Molar enthalpy of transition or fusion
[3] = molar heat capacity at constant pressure; settings: 101.33 kPa

C1C2CC3CC1CC(C14CC5CC(CC(C5)C1)C4)(C2)C3 [1,1'-biadamantane]
Settings	molar entropy, [1] [J/K/mol]	molar heat capacity at constant pressure, [3] [J/K/mol]	vapor or sublimation pressure, [1] [kPa]
5 K, Crystal 3, Small (less than 1 g) adiabatic calorimetry	0.123	0.4412	–
10 K, Crystal 3, Small (less than 1 g) adiabatic calorimetry	1.008	3.035	–
20 K, Crystal 3, Small (less than 1 g) adiabatic calorimetry	6.713	16	–
30 K, Crystal 3, Small (less than 1 g) adiabatic calorimetry	16.03	30.58	–
40 K, Crystal 3, Small (less than 1 g) adiabatic calorimetry	26.5	42.31	–
50 K, Crystal 3, Small (less than 1 g) adiabatic calorimetry	37.01	52.05	–
60 K, Crystal 3, Small (less than 1 g) adiabatic calorimetry	47.28	60.95	–
70 K, Crystal 3, Small (less than 1 g) adiabatic calorimetry	57.32	69.55	–
80 K, Crystal 3, Small (less than 1 g) adiabatic calorimetry	67.2	78.54	–
90 K, Crystal 3, Small (less than 1 g) adiabatic calorimetry	76.98	87.69	–
100 K, Crystal 3, Small (less than 1 g) adiabatic calorimetry	86.7	97.04	–
110 K, Crystal 3, Small (less than 1 g) adiabatic calorimetry	96.4	106.6	–
120 K, Crystal 3, Small (less than 1 g) adiabatic calorimetry	106.1	116.4	–
130 K, Crystal 3, Small (less than 1 g) adiabatic calorimetry	115.8	126.3	–
140 K, Crystal 3, Small (less than 1 g) adiabatic calorimetry	125.5	136.4	–
150 K, Crystal 3, Small (less than 1 g) adiabatic calorimetry	135.2	146.7	–
160 K, Crystal 3, Small (less than 1 g) adiabatic calorimetry	145.1	157.3	–
170 K, Crystal 3, Small (less than 1 g) adiabatic calorimetry	155	168.2	–
180 K, Crystal 3, Small (less than 1 g) adiabatic calorimetry	164.9	179.3	–
190 K, Crystal 3, Small (less than 1 g) adiabatic calorimetry	174.9	190.7	–
200 K, Crystal 3, Small (less than 1 g) adiabatic calorimetry	184.9	202.7	–
210 K, Crystal 3, Small (less than 1 g) adiabatic calorimetry	195.1	214.7	–
220 K, Crystal 3, Small (less than 1 g) adiabatic calorimetry	205.4	227.1	–
230 K, Crystal 3, Small (less than 1 g) adiabatic calorimetry	215.8	240	–
240 K, Crystal 3, Small (less than 1 g) adiabatic calorimetry	226.3	253.4	–
250 K, Crystal 3, Small (less than 1 g) adiabatic calorimetry	237	267.7	–
260 K, Crystal 3, Small (less than 1 g) adiabatic calorimetry	247.6	281.1	–
270 K, Crystal 3, Small (less than 1 g) adiabatic calorimetry	258.5	295.3	–
273.15 K, Crystal 3, Small (less than 1 g) adiabatic calorimetry	262.1	299.8	–
280 K, Crystal 3, Small (less than 1 g) adiabatic calorimetry	269.5	309.6	–
290 K, Crystal 3, Small (less than 1 g) adiabatic calorimetry	280.6	324	–
298.15 K, Crystal 3, Small (less than 1 g) adiabatic calorimetry	289.9	335.3	–
300 K, Crystal 3, Small (less than 1 g) adiabatic calorimetry	291.9	338	–
310 K, Crystal 3, Small (less than 1 g) adiabatic calorimetry	303.2	352.8	–
320 K, Crystal 3, Small (less than 1 g) adiabatic calorimetry	314.6	366.5	–
330 K, Crystal 3, Small (less than 1 g) adiabatic calorimetry	326.1	378.2	–
336.3 K, Crystal 2, Small (less than 1 g) adiabatic calorimetry	336.8	385	–
336.3 K, Crystal 3, Small (less than 1 g) adiabatic calorimetry	333.4	385	–
340 K, Crystal 2, Small (less than 1 g) adiabatic calorimetry	340	389	–
350 K, Crystal 2, Small (less than 1 g) adiabatic calorimetry	352.4	400	–
360 K, Crystal 2, Small (less than 1 g) adiabatic calorimetry	362.8	412	–
370 K, Crystal 2, Small (less than 1 g) adiabatic calorimetry	374.3	424	–
380 K, Crystal 2, Large sample (1 g) DSC	385.8	437	–
390 K, Crystal 2, Large sample (1 g) DSC	397.3	450	–
392.77 K, Crystal 2	–	–	0.0005447
398 K, Crystal 2	–	–	0.0008576
400 K, Crystal 2, Large sample (1 g) DSC	408.8	463	–
402.91 K, Crystal 2	–	–	0.001308
407.9 K, Crystal 2	–	–	0.001881
410 K, Crystal 2, Large sample (1 g) DSC	420.4	477	–
412.88 K, Crystal 2	–	–	0.002772
417.8 K, Crystal 2, Large sample (1 g) DSC	429.5	487	–
420 K, Crystal 2, Large sample (1 g) DSC	432.1	491	–
422.86 K, Crystal 2	–	–	0.006026
427.75 K, Crystal 2	–	–	0.00828
430 K, Crystal 2, Large sample (1 g) DSC	444	505	–
432.81 K, Crystal 2	–	–	0.01195
437.82 K, Crystal 2	–	–	0.01674
440 K, Crystal 2, Large sample (1 g) DSC	456	520	–
442.66 K, Crystal 2	–	–	0.02466
450 K, Crystal 2, Large sample (1 g) DSC	467	535	–
460 K, Crystal 2, Large sample (1 g) DSC	479	551	–
470 K, Crystal 2, Large sample (1 g) DSC	491	567	–
480 K, Crystal 2, Large sample (1 g) DSC	503	582	–
490 K, Crystal 2, Large sample (1 g) DSC	516	598	–
500 K, Crystal 2, Large sample (1 g) DSC	528	614	–
509.6 K, Crystal 1, Large sample (1 g) DSC	542	629	–
509.6 K, Crystal 2, Large sample (1 g) DSC	540	629	–
510 K, Crystal 1, Large sample (1 g) DSC	543	630	–
520 K, Crystal 1, Large sample (1 g) DSC	555	646	–
530 K, Crystal 1, Large sample (1 g) DSC	568	662	–
535 K, Crystal 1, Large sample (1 g) DSC	574	669	–
540 K, Crystal 1, Large sample (1 g) DSC	580	677	–
545 K, Crystal 1, Large sample (1 g) DSC	586	685	–
550 K, Crystal 1, Large sample (1 g) DSC	593	693	–
555 K, Crystal 1, Large sample (1 g) DSC	599	701	–
560 K, Crystal 1, Large sample (1 g) DSC	605	709	–

Settings	Molar enthalpy of transition or fusion, Crystal 1, DSC [kcal/mol]	Molar enthalpy of transition or fusion, Crystal 2, DSC [kcal/mol]	Molar enthalpy of transition or fusion, Crystal 3, Adiabatic calorimetry [kcal/mol]	Triple point temperature, Crystal 1, DTA [K]	Triple point temperature, Crystal 2, DTA [K]	Triple point temperature, Crystal 3 [K]
[1]	–	–	–	561	509.6	336.3
[2]	16.7	0.311	0.276	–	–	–
